Read-outs that look alike come from different tables or passages of the source.
Assays:
organic acid transport = assay: Duration of anticonvulsive action with and without probenecid; format: in vivo, mouse; settings: listed as 2/514
Protocol: To assess NMDA receptor antagonistic properties of the tested agents by assessing anticonvulsive effects. Additionally the role of organic acid transporters in the elimination from the brain of tested agents was assessed by using an inhibitor, Probenicid, on the duration of anticonvulsive activity.
Male albino Swiss mice (19-21 g) housed 10-15 per cage were used for the NMDA lethality test (Leander et al., 1988). For pentylenetetrazol (PTZ)-induced convulsions male albino Swiss mice (25-34 g.) housed 40 per cage (58×38×20 cm) were used while in the maximal electroshock (MES) and motor impairment tests NMR female mice (18-28 g) housed 5 per cage were employed. All animals were kept with water and food ad libittum under a 12-h light-dark cycle (light on at 6 a.m.), and at a controlled temperature (20°±0.5° C.). All experiments were performed between 10 a.m. and 5 p.m. Tested agents were injected 15 min. i.p before the induction of convulsions if not stated otherwise (see below). Mrz 2/502 was dissolved in saline added with NaOH. Most other agents were dissolved in the following solution: 0.606 g Tris; 5.0 g. glucose; 0.5 g. Tween 80; and 95 ml water. The choline and tetramethylammonium salts were dissolved in distilled water.
MES (100 Hz, 0.5 sec shock duration, 50 mA shock intensity, 0.9 ms impulse duration, Ugo Basile) was applied through corneal electrodes. The presence of tonic convulsions was scored (tonic extension of hind paws with minimum angle to the body of 90°). In an additional experiment mice were injected with Probenicid (200 mg/kg) 30 min before administration of the tested agents to assess the role of organic acid transport in elimination (duration of action). The aim was to obtain ED50 s for all parameters scored using the Litchfield Wilcoxon (1949) test for quantal dose responses.
Moreover it seems that choline salts have a longer duration of action. Probenecid injection prolonged considerably the duration of anticonvulsive action of all agents tested. For example the half lives of 2/514 and 2/570 were around 40 and 80 minutes respectively in the absence of probenicid. In the presence of probenicid the half lives were prolonged to around 180 and 210 minutes respectively. Thus, it seems that organic acids transport in the choroid plexus out of the brain plays an important role in the short duration of action of the compounds tested..

[1] = In vivo systemic and / or CNS availability
AMPA receptor = assay: Patch clamp, inward currents to AMPA in cultured superior colliculus neurones; format: cell-based, rat; settings: AMPA 100 μM
Protocol: Cells were mechanically dissociated in 0.05% DNAase / 0.3% ovomucoid (Sigma) following a 15 minute pre-incubation with 0.66% trypsin / 0.1% DNAase (Sigma). The dissociated cells were then centrifuged at 18G for 10 minutes, resuspended in minimum essential medium (Gibco) and plated at a density of 200,000 cells cm onto poly-L-lysine (Sigma)-precoated plastic petri dishes (Falcon). The cells were nourished with NaHCO3 /HEPES-buffered minimum essential medium supplemented with 5% foetal calf serum and 5% horse serum (Gibco) and incubated at 37° C. with 5%CO2 at 95% humidity. The medium was exchanged completely following inhibition of further glial mitosis with cytosine-β-D-arabinofuranoside (20 μM Sigma) after about 7 days in vitro. Thereafter the medium was exchanged partially twice weekly. […] Moreover, the relatively small neurones (soma 15-20 μm .phi.) are ideally suited to minimise problems of buffered diffusion for concentration clamp experiments.
Patch clamp recordings were made from these neurones with polished glass electrodes (4-6 m.OMEGA.) in the whole cell mode at room temperature (20°-22° C.) with the aid of an EPC-7 amplifier (List). Test substances were applied by switching channels of a custom made fast superfusion system with a common outflow (10-20 ms exchange times). The contents of the intracellular solution were as follows (mM): CsCl (120), TEACl (20), EGTA (10), MgCl2 (1), CaCl2 (0.2), glucose (10), ATP (2), cAMP (0.25); pH was adjusted to 7.3 with CsOH or HCl. The extracellular solutions had the following basic composition (mM): NaCl (140), KCl (3), CaCl2 (0.2), glucose (10), HEPES (10), sucrose (4.5), tetrodotoxin (TTX 3*10-4). For most experiments glycine (1 μM) was present in all solutions. Experiments to test the glycine-dependence of the tricyclic "pyrido-phtalazin diones" were performed in the continuous presence of increasing concentrations of glycine (1-10 μM).
In contrast, three of these potent glycine, antagonists were only very weak antagonists of inward currents to AMPA (100 μM). […] This profile of action, although very weak, is typical for competitive AMPA receptor antagonists which preferentially block the peak non-desensitised state, low affinity state of the receptor (see Parsons et al., 1994).

NMDA receptor = molecular target: T1, NMDA receptor (Rattus norvegicus, UniProt P35439); assay: Microelectrophoretic application of NMDA to spinal neurones in vivo; settings: i.v., responses of single rat spinal neurones
T1 construct: endogenous in cells
Protocol: The ability of these glycineB antagonists to act as NMDA receptor antagonists in vivo was assessed using i.v. administration against responses of single neurones in the rat spinal cord to microelectrophoretic application of AMPA and NMDA.

[2] = peak currents, read-out: IC50 against peak AMPA induced currents
[3] = peak currents, read-out: Peak AMPA IC50
[4] = plateau currents, read-out: Plateau AMPA IC50

Row | SMILES | half life of anticonvulsive action (organic acid transport; absence of probenecid) | half life of anticonvulsive action (organic acid transport; presence of probenecid 200 mg/kg, 30 min before) | in vivo systemic and / or CNS availability versus associated class I compounds [1] | IC50 (AMPA receptor; [2]) [µM] | IC50 (AMPA receptor; [3]) [µM] | IC50 (AMPA receptor; plateau currents, listed as 514, read-out: Plateau AMPA IC50) [µM] | IC50 (AMPA receptor; [4]) [µM] | Microelectrophoretic NMDA ID50 (NMDA receptor) [mg/kg] | Microelectrophoretic NMDA ID50 (NMDA receptor; listed as 502) [mg/kg] | IC50 (AMPA receptor; plateau currents, listed as 502, read-out: Plateau AMPA IC50) [µM] | Microelectrophoretic NMDA ID50 (NMDA receptor; listed as 516) [mg/kg]
1 | O=c1[nH]nc(O)c2c1cc1cc(Br)ccc1[n+]2[O-] [Mrz 2/514, 8-bromo-4-hydroxy-1-oxo-1,2-dihydropyridazino[4,5-b]-quinoline 5-oxide] | around 40 minutes | around 180 minutes | much better | 73 | 72.7 | 307 | > 100 | – | – | – | –
2 | O=c1[nH][nH]c(=O)c2nc3ccc(F)cc3cc12 [Mrz 2/519] | – | – | – | – | – | – | – | > 16.0 | – | – | –
3 | O=c1[nH]nc(O)c2c1cc1cc(Cl)ccc1[n+]2[O-] [Mrz 2/502, 8-chloro-4-hydroxy-1-oxo-1,2-dihydropyridazino[4,5-b]-quinoline 5-oxide] | – | – | – | 25 | 25 | – | > 100 | 1.2 | 1.2 | 150 | –
4 | O=c1[nH][nH]c(=O)c2nc3ccc(Cl)cc3cc12 [Mrz 2/501] | – | – | – | – | – | – | – | > 16.0 | – | – | –
5 | O=c1[nH]nc(O)c2c1cc1cc(F)ccc1[n+]2[O-] [Mrz 2/516, 8-fluoro-4-hydroxy-1-oxo-1,2-dihydropyridazino[4,5-b]-quinoline 5-oxide] | – | – | much better | 18 | 17.6 | – | > 100 | 1.8 | – | – | 1.8

— patent US5776935A, “Pyrido-phtalazin diones and their use against neurological disorders associated with excitotoxicity and malfunctioning of glutamatergic neurotransmission” (Merz & Co. GmbH & Co., priority 1996, dated 1998)
